Reference: ChEMBL document CHEMBL3039007, “Structure-based identification of OATP1B1/3 inhibitors” (Mol Pharmacol, 2013)

What was measured:
[1] = molecular target: T1, Solute carrier organic anion transporter family member 1B1 (Homo sapiens, UniProt Q9Y6L6); details: chinese hamster, cho, 10 µM
T1 sequence (Q9Y6L6 whole entry): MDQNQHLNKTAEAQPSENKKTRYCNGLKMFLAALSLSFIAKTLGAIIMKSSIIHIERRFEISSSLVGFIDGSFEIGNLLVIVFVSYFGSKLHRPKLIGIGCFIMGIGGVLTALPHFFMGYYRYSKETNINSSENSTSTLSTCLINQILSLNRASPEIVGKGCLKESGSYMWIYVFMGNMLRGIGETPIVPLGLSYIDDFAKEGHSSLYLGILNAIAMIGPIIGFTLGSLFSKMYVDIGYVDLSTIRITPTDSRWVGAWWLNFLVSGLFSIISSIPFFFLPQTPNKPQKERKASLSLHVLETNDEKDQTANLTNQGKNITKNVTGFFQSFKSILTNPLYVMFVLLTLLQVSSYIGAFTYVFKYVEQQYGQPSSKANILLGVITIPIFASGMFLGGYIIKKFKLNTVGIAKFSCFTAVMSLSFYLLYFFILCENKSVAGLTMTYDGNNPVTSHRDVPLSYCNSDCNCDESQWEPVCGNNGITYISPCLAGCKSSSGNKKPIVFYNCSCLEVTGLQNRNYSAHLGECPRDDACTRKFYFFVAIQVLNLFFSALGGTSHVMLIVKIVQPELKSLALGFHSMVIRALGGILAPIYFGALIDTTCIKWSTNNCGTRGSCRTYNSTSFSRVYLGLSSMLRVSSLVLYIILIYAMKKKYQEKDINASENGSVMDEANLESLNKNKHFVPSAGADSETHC

[2] = molecular target: T2, Solute carrier organic anion transporter family member 1B3 (Homo sapiens, UniProt Q9NPD5); details: chinese hamster, cho, 10 µM
T2 sequence (Q9NPD5 whole entry): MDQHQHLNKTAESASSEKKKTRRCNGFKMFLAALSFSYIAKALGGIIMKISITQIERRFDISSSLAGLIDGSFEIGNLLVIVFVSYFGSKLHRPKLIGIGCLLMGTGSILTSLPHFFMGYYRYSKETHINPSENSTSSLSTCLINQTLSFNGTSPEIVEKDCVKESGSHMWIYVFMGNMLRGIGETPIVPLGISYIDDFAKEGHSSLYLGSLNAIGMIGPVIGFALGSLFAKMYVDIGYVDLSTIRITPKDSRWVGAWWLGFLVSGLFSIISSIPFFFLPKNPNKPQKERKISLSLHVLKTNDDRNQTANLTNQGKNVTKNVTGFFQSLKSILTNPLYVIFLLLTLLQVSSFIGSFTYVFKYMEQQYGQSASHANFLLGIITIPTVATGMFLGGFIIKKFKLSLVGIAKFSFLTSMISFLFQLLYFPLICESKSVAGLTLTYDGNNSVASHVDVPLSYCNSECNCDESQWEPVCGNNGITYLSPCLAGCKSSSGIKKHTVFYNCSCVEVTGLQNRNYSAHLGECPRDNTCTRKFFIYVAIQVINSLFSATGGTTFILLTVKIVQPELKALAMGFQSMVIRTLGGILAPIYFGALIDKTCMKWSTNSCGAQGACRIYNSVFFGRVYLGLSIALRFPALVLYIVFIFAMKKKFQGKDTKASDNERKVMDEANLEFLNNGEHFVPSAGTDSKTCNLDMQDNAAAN

SMILES | residual activity [1] | residual activity [2]
COC(=O)c1cc(OC)c(=O)c2c(OC)c(OC)ccc2c1 [METHYL 7-DESOXYPURPUROGALLIN-7-CARBOXYLATE TRIMETHYL ETHER] | 133.8% | 100.1%
COc1cc2c(cc1O)C(Cc1ccc(O)cc1)N(C)CC2 (stereo unspecified) [METHYL COCLAURINE] | 96.63% | 94.46%
COC(=O)CC[C@@H](C)[C@H]1CC[C@H]2[C@@H]3CC[C@@H]4C[C@H](O)CC[C@]4(C)[C@H]3C[C@H](O)[C@]12C [METHYL DEOXYCHOLATE] | 62.17% | 71.46%
COC(=O)c1c(C)cc(O)cc1O [METHYL ORSELLINATE] | 90.83% | 98.38%
COP(=S)(OC)Oc1ccc([N+](=O)[O-])cc1 [METHYL PARATHIONE] | 107.9% | 100.2%
COc1c2c(cc3occ(-c4ccc5c(c4)OCO5)c(=O)c13)OC(C)(C)C=C2 [METHYL ROBUSTONE] | 133% | 107.5%
C=C1[C@@H]2CC[C@@]3(C)[C@H](c4ccoc4)OC(=O)C[C@]13O[C@H]1CC(=O)C(C)(C)[C@H](CC(=O)OC)[C@]12C [METHYLANGOLENSATE] | 20.27% | 33.7%
Cc1coc2ccccc2c1=O [METHYLCHROMONE] | 91.88% | 92.21%
C[C@](N)(Cc1ccc(O)c(O)c1)C(=O)O [METHYLDOPA] | 111.3% | 103.5%
CC[C@@H](CO)NC(=O)[C@@H]1C=C2c3cccc4[nH]cc(c34)C[C@H]2N(C)C1.O=C(O)/C=C\C(=O)O [METHYLERGONOVINE MALEATE] | 77.53% | 108.9%
CCOC(=O)c1c(C)cc(O)c(C)c1O [METHYLORSELLINIC ACID, ETHYL ESTER] | 76.13% | 105.6%
CC(=O)OCC(=O)[C@@]1(O)CC[C@H]2[C@@H]3C[C@H](C)C4=CC(=O)C=C[C@]4(C)[C@H]3[C@@H](O)C[C@@]21C [METHYLPREDNISOLONE ACETATE] | 52.04% | 84.05%
C[C@H]1C[C@@H]2[C@H]([C@@H](O)C[C@@]3(C)[C@H]2CC[C@]3(O)C(=O)CO)[C@@]2(C)C=CC(=O)C=C12 [METHYLPREDNISOLONE] | 79.56% | 93.74%
Cc1cc(=O)[nH]c(=S)[nH]1 [METHYLTHIOURACIL] | 83.19% | 80.5%
CCc1cccc(C)c1N(C(=O)CCl)C(C)COC (stereo unspecified) [METOLACHOR] | 93.33% | 101.7%
Cc1ccccc1N1C(=O)c2cc(S(N)(=O)=O)c(Cl)cc2NC1C (stereo unspecified) [METOLAZONE] | 62.42% | 66.79%
Cc1ncc([N+](=O)[O-])n1CCO [METRONIDAZOLE] | 102.6% | 98.27%
C[C@](N)(Cc1ccc(O)cc1)C(=O)O [METYROSINE] | 64.38% | 84.41%
COC(=O)C[C@H]1C(C)(C)C(=O)[C@@H]2CC3=C4CC(=O)O[C@@H](c5ccoc5)[C@]4(C)CC[C@@H]3[C@@]1(C)C2=O [MEXICANOLIDE] | 44.09% | 122.7%
Clc1ccc(COC(Cn2ccnc2)c2ccc(Cl)cc2Cl)c(Cl)c1.O=[N+]([O-])O (stereo unspecified) [MICONAZOLE NITRATE] | 124.1% | 119.9%
COc1ccc(OC)c(C(O)CNC(=O)CN)c1.Cl (stereo unspecified) [MIDODRINE HYDROCHLORIDE] | 101.7% | 88.99%
OCCN1C[C@H](O)[C@@H](O)[C@H](O)[C@H]1CO [MIGLITOL] | 99.55% | 80.3%
CCCCCCCCCCCCCCCCOP(=O)([O-])OCC[N+](C)(C)C [MILTEFOSINE] | 89.28% | 93.25%
